Experimental data from patent US20030165853A1, “Antisense imaging of gene expression of the brain in vivo” (The Regents of the University of California Office of …, priority 2000, published 2003).

Legend:
[1] = rat, in vivo, iv
Description: Either the unconjugated anti-luciferase PNA or the anti-luciferase PNA conjugated to OX26/SA was injected intravenously into ketamine/xylazine anesthetized adult male Sprague-Dawley rats (270-300 g) by using methods described previously (10). The dose of radioactivity in these experiments was 5 μCi/rat of PNA (0.02 nmol) conjugated to 20 μg/rat of OX26/SA (0.1 nmol).

luciferase mRNA [2] = experiment: Luciferase RNase protection assay; type: binding, firefly; settings: RNase A/T1 protection
Description: These methods were identical to those described previously (Pardridge et al. (1995) Proc. Natl. Acad. Sci., USA, 92: 5592-5596). The luciferase RNA was prepared with a luciferase transcription plasmid, designated clone 760, which has been described previously (Tsukamoto et al. (1997) J. Neurochem. 68: 2587-2592). The sense RNA was synthesized with T7 RNA polymerase after linearization of the plasmid with EcoRI. The transcribed RNA was radiolabeled with [^32Pα]ATP, and the correct size of the radiolabeled transcribed sense RNA was determined by agarose/formaldehyde gel electrophoresis followed by film autoradiography. For the RNase protection assay, 0.5 pmol of biotinylated luciferase PNA with or without conjugation to 10 pmol of OX26/SA was added to 10 5 cpm of ^32P-labeled sense luciferase RNA (8 fmol) in 3 μl buffer (50 mM NaCl/5 mM Tris, pH 8/0.5 mM EDTA) and annealed for 30 min at 56° C. Then 15 units of RNase T1 and 0.4 units of RNase A were added to samples in […] of RNase digestion buffer m (Ambion, Austin, Tex.). RNA fragments were analyzed by 7 M urea/20% PAGE and autoradiography, as described previously (Pardridge et al. (1995) Proc. Natl. Acad. Sci., USA, 92: 5592-5596). Labeled RNA and PNA were heat denatured for 2 min at 95° C. and then incubated on ice for 2 min immediately before the experiment or conjugation to OX26/SA.

C6 cells = experiment: Uptake of [125I]PNA tracers in cultured C6 cells; type: cell-based, rat; settings: 2-24 h incubation, TCA-precipitable cellular fraction
Description: (§1) The uptake of ^125I-labeled antirev or antiluciferase PNA was investigated in C6-790 and C6 cells in the presence or absence of OX26/SA. Cells were grown in 24 well dishes and incubated with 5 μCi/ml (12 nM) [^125I]PNA with and without OX26/SA (1:1 molar ratio) for 2, 4, 6, or 24 h. The monolayers were then washed 3 times in 2.5 ml cold PBS (10 mM phosphate buffer, pH 7.2/150 mM NaCl) and lysed with 250 μl reporter lysis buffer (Promega), as previously described (Boado and Pardridge (1998) Mol. Brain Res. 59: 109-113). Aliquots of samples (100 μl) and standards (10 μl) were precipitated with TCA, and the percent of medium PNA that was taken up into the TCA-precipitable cellular fraction was measured and expressed either as nanograms PNA per milligram protein or percentage uptake per milligram protein. Twenty-microliter lysate aliquots were also resolved by SDS in a 12% gel. Gels were fixed in 50% MeOH and 10% acetic acid solution for 30 min, incubated in 7% MeOH, 7% acetic acid and 1% glycerol for 5 min, and dried before autoradiography with Kodak BioMax film and intensifying screens. For the pulse-chase study, either control C6 or C6-790 cells were incubated as described above with 10 μCi/ml (24 nM) [^125I]antiluciferase PNA conjugated to OX26SA for 24 h. […] TCA-precipitable cellular radioactivity was then measured at 0, 2, 6, or 24 h of incubation.

C6-790 cells = experiment: Uptake of [125I]PNA tracers in cultured C6-790 cells; type: cell-based, rat; settings: 2-24 h incubation, TCA-precipitable cellular fraction
Description: as §1

luciferase mRNA [3] = experiment: Film autoradiography in rats bearing C6-790 brain tumors; type: in vivo, rat; settings: 100 μCi i.v., brain removed at 2 h, C6-790 gliomas in Fischer rats
Description: Fourteen days after implantation of C6-790 cells, the rats were anesthetized with ketamine and xylazine for i.v. injection of brain imaging agents, as described previously (Kurihara et al. (1999) Bioconjugate Chem. 10: 502-511). […] In these studies, each rat received 0.2 nmol of PNA and 40 μg (0.2 nmol) of OX26/SA. Each rat was also administered 20 mg of L-tyrosine and 2 mg of sodium iodide i.p. 15 min before the study to block brain uptake of radiolabeled metabolites such as [^125I]tyrosine or iodide. […]

C6 experimental tumors = experiment: Film autoradiography in rats bearing control C6 tumors not transfected with the luciferase transgene; type: in vivo, rat; settings: 100 μCi i.v., brain removed at 2 h
Description: The C6-790 cells were implanted in the caudate-putamen nucleus of male CD Fischer 344 rats (Harlan Breeders, Indianapolis, Ind.), weighing 250-275 g under stereotaxic guidance, as described previously (Kurihara et al. (1999) Bioconjugate Chem. 10: 502-511). The animals were examined 14 days later. To confirm expression of the luciferase transgene in the tumor in vivo, tumor extracts were prepared in Promega lysis buffer, and luciferase enzyme activity was measured with luciferin as substrate (Promega) by using a Berthold (Nashua, N.H.) luminometer, as described previously (Boado and Pardridge (1998) Mol. Brain Res. 59: 109-113). A luciferase standard curve was also assayed, and the enzyme activity was expressed as picograms of luciferase equivalent per milligram of tissue protein. The C6-790 cells were grown in tissue culture as described previously (Id.), and these cells were also extracted in Promega lysis buffer for measurement of luciferase activity in the cells grown in tissue culture before implantation in brain. Control experiments were performed with C6 cells described previously (13), and these cells were used to develop brain tumors exactly as described above, except these tumor cells were not transfected with the luciferase transgene.
The brain scans and autopsy stains for three different groups of adult Fischer rats bearing the C6-790 gliomas are shown in FIG. 5. […]

HD mRNA = experiment: HD RNase protection assay; type: binding, human; settings: RNase T1/A digestion, PAGE autoradiography
Description: The sense RNA was synthesized with T3 RNA polymerase following linearization of the plasmid with EcoRI. The transcribed RNA was radiolabeled with [^32Pα]ATP to a specific activity of 0.22 μCi/pmol, as previously described (Boado and Pardridge (1994) Bioconj. Chem., 6: 406-410). For the RNAse protection assay, 0.6 pmol of biotinylated HD-PNA or biotinylated luciferase-PNA, with or without conjugation to 6.4 pmol of MAb-SA, was added to 10^5 CPM of [^32P]-labeled sense HD RNA (0.2 pmol) in 3 μl buffer (80 mM NaCl, 7 mM phosphate buffer, pH=7.5, 0.1% BSA), and annealed for 30 minutes at 42° C. Then 20 units RNAse Ti and 2.5 μg RNAse A were added to the samples in 17 μl of RNAse digestion buffer (0.3 M NaCl, 10 mM TRIS pH=7.5, 4 mM EDTA, 0.02% tRNA, 0.02% BSA) and incubated for 30 min at 37° C. RNA fragments were analyzed by 7 M urea/20% polyacrylamide gel electrophoresis following by autoradiography as described by Pardridge et al. (1995) Proc. Natl. Acad. Sci., USA, 92:5592-5596. Labeled RNA and PNAs were heat denatured for 2 minutes at 95° C. and then incubated on ice for 2 minutes immediately before the experiment or conjugation to MAb-SA.

[4] = biological target: rat transferrin receptor (rat) (UniProt Q99376); experiment: cell-based or functional assay
rat transferrin receptor (rat), sequence (Q99376 whole entry): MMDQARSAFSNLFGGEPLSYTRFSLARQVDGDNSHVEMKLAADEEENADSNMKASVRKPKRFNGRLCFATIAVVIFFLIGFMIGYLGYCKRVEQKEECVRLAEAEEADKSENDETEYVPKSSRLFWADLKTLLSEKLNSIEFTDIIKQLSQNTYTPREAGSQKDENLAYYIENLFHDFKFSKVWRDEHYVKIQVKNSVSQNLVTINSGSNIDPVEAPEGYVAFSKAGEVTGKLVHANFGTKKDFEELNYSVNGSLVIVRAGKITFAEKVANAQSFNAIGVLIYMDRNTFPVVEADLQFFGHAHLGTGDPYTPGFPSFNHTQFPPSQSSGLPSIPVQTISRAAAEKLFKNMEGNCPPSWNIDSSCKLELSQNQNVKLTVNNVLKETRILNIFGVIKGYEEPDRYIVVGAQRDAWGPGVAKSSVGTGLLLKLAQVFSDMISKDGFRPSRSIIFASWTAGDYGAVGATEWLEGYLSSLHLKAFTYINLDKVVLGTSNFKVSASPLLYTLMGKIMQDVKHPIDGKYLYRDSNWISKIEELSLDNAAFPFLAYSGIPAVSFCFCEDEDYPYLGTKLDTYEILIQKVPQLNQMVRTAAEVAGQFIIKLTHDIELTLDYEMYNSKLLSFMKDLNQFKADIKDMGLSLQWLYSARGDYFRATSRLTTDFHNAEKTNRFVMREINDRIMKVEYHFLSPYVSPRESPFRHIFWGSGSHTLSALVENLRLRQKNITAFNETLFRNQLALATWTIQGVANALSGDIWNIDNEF

| uptake of [125I]PNA conjugate by cells after 24 h of incubation (ng PNA per milligram of protein) [4] | Substance | plasma clearance [1] | hybridization to luciferase sense RNA (protection of 16 mer RNA fragments) (luciferase mRNA [2]) | uptake by C6 cells (C6 cells) | uptake by C6-790 cells (C6-790 cells) | imaging of luciferase gene expression in brain tumor (luciferase mRNA [3]) | radioactivity in control C6 tumors (C6 experimental tumors) | hybridization to HD mRNA (RNase protected fragment) (HD mRNA) |
| --- | --- | --- | --- | --- | --- | --- | --- | --- |
|  | antiluciferase PNA: biotinylated 16-mer peptide nucleic acid antisense to luciferase mRNA (CTTCCATTTTACCAAC), linkers, Tyr-Lys, amidated carboxy terminus; radioiodinated (all peptide nucleic acid (PNA); biotinylated, linkers, Tyr-Lys, amidated carboxy terminus, radioiodinated) | 0.432 ± 0.024 L/h/kg | hybridized to the luciferase sense RNA | negligible | negligible | no imaging of either normal brain or brain tumor | no measurable radioactivity was detectable | did not protect the RNA from nuclease digestion |
|  | antirev PNA: control PNA antisense to the rev gene of HIV, sequence CTCCGCTTCTTCCTGCCA (all peptide nucleic acid (PNA); 125I-radiolabelled, conjugated to streptavidin-OX26 antibody, attachment not given here, further chemistry not fully specified) [reference compound] |  |  | negligible | negligible |  |  |  |
| 10 | conjugate of the OX26 mAb (mouse monoclonal antibody to the rat transferrin receptor) and recombinant streptavidin (from UniProt P22629 37-163) |  |  |  |  |  |  |  |
